From patent US20260364072A1, “METHODS FOR PROMOTING EXPANSION OF HUMAN CD34+ CELLS IN VIVO AND FOR PROMOTING NEURAL REGENERATION” (THE REGENTS OF THE UNIVERSITY OF CALIFORNIA, priority 2023, published 2026)

What was measured:
SF3B3 = SF3B3 splice biomarker analysis in human CD45+ cells from normal HSPC engrafted mice; format: in vivo
Description: After completion of treatment and engraftment analyses of in vivo normal HSPC assays, total human hematopoietic cells (CD45^+) were selected for splice biomarker analyses to determine sensitivity of normal human hematopoietic cells to Rebecsinib compared with sAML LSC.
For quantitative analysis of splice isoform expression, RNA editing rates, and whole gene expression by qRT-PCR, cells or tissue fragments were harvested in RNA lysis buffer and total RNA was extracted using RNeasy mini or micro extraction kits (QIAGEN, Germantown, MD) following the manufacturer's protocol including a DNase incubation step to digest any trace genomic DNA present. Levels of ADAR1 variants and LSC-specific transcripts were quantified by qRT-PCR as previously described.^14 RNA-editing site-specific qRT-PCR (RESSqPCR) was performed for variants in AZIN1 transcripts.^53 Additional species-specific primers were also designed to quantify intron retention rates in cells treated with Rebecsinib as a biomarker of response to RNA splicing modulation. Specifically, for the two-step SYBR-green based assays, as previously described,^7,14,53 100-1000 ng of RNA were subjected to cDNA synthesis using the SUPERSCRIPT III™ (ThermoFisher Scientific) kit followed by qRT-PCR using SYBR GreenER (ThermoFisher Scientific) master mix according to the manufacturer's recommended procedures. qRT-PCR was performed using SYBR GREENER SUPER MIX™ (Life Technologies) on BioRad iQ5™, C1000 TOUCH™, or BioRad CFX384™ instruments. Human splice isoform-specific, RNA editing site-specific qPCR (RESSqPCR)^53. Primer sets that have not been previously published were designed and tested for efficiency followed by analyses in samples exposed to Rebecsinib, with species-specific HPRT primers used as controls. Samples with Ct<35 for the species-specific reference gene, HPRT, were included in analyses. Relative mRNA expression values were calculated using the 2^−ΔCT method, with normalization to untreated or vehicle-treated controls.^54 […]

[1] = NHP single-dose toxicokinetic study; format: in vivo, cynomolgus monkeys
Experimental: Pre-IND PD and toxicokinetic (TK) studies (FIG. 4D) were enabled by scalable Rebecsinib synthesis^34 and development of an optimized formulation for in vivo biodistribution (5% w/v EtOH, 5% w/v Kolliphor HS15 in 0.9% Sodium Chloride). In PK studies, Rebecsinib was detectable in rat, rabbit, and non-human primate (NHP) plasma following IV bolus administration. In rat TK studies, Rebecsinib was quantifiable up to 1-hour post-dose at 1 mg/kg and up to 4 hours post-dose at 3, 5, and 8 mg/kg (FIG. 4E). […] Rebecsinib T1/2 values were 0.342, 0.447, 0.313, and 0.530 hours at 1, 3, 5, and 8 mg/kg, respectively. […] Following 3, 10, and 20 mg/kg boluses, Rebecsinib was quantifiable in plasma 1 hour post-dose and could be detected up to 8 hours post-dosing with 40 mg/kg (FIG. 4F). […] Following 3, 10, 15, and 20 mg/kg of Rebecsinib, quantifiable plasma concentrations of Rebecsinib were observed through 8 hrs post-dose (FIG. 4G).
(FIG. 29D) Schematic diagram outlining multispecies toxicokinetic (TK) and pharmacodynamic studies in mammalian species treated in vivo with a single dose of Rebecsinib. Toxicokinetic analyses were performed in rats (n=6 per sex, per group), rabbits (n=2 per sex, per group), and non-human primates (NHPs, n=1 per sex, per group) and pharmacodynamic splice isoform quantification studies were performed in peripheral blood mononuclear cells (PBMCs) from NHP.
(FIG. 29G, FIG. 29H) For in vivo TK and complementary pharmacodynamic studies, NHPs were given a single injection of Rebecsinib at 3-20 mg/kg, or vehicle control, and blood samples were drawn at regular intervals to determine plasma concentrations (FIG. 29G) of the compound along with splice isoform biomarker assays to quantify MCL1 exon skipping in PBMCs isolated from treated animals (FIG. 29H, n=2 animals per group).
Single-dose TK studies were performed in Sprague Dawley rats (Charles River Labs, South San Francisco, CA), New Zealand white rabbits (BASi/Inotiv, West Lafayette, IN), and cynomolgus monkeys (BASi/Inotiv). Rat and rabbit studies included toxicology analyses, quantification of plasma levels of Rebecsinib, and necropsies to evaluate organ integrity after treatment. For NHP studies, health and ophthalmological evaluations were performed before and after dosing with Rebecsinib, and blood samples were collected for quantification of plasma levels of Rebecsinib and biomarker studies in PBMCs from treated and control animals. All monkeys were returned to the animal colony after the end of the observation period. Toxicokinetic values including mean plasma concentrations and t1/2 values were calculated according to CRO-approved protocols (Charles River and BASi).

## CC[C@H](OC)[C@@H](C)[C@H]1O[C@@H]1[C@@H](O)[C@H](C)/C=C/C=C(\C)[C@H]1OC(=O)C[C@H](O)CC[C@@](C)(O)[C@@H](OC(C)=O)/C=C/[C@@H]1C [Rebecsinib]
SF3B3; normal human CD45+ cells
  SF3B3 intron retention in bone marrow: no changes in SF3B3 intron retention
  SF3B3 intron retention in spleen: trend toward changes in the spleen that were not statistically significant
SF3B3; therapeutic index, humanized mouse models
  sensitivity of sAML LSC to splicing modulation versus normal HSPCs: sAML LSC are significantly more sensitive to splicing modulation than normal HSPCs
[1]
  tolerability: favorable tolerability
[1]; 20 mg/kg, resolved within 24 hours with no treatment and no sequelae
  diarrhea: one female NHP in the 20 mg/kg treatment group developed diarrhea
[1]; IV bolus, 3, 10, 15, and 20 mg/kg
  quantifiable plasma concentrations through time post-dose: up to 8 hrs
[1]; IV bolus, all dose levels
  peak (Cmax) levels, male vs female: comparable between male and females
  total (AUClast) levels, male vs female: comparable between male and females
[1]; cynomolgus monkey, plasma, IV bolus, read-out: half-life (t1/2)
  half-life: 37.2 to 66 min
